ChEMBL document CHEMBL4842341, “Discovery of IACS-9779 and IACS-70465 as Potent Inhibitors Targeting Indoleamine 2,3-Dioxygenase 1 (IDO1) Apoenzyme” (J Med Chem, 2021)

What was measured:
in vitro [1] = conditions: human, liver microsomes
in vivo [2] = conditions: NSG, mouse, tumor, po, 125 mg/kg
in vivo [3] = conditions: NSG, mouse, plasma, po, 125 mg/kg
[4] = Drug concentration in plasma of NSG mouse xenografted with human SKOV3 cells at 3 mg/kg, po QD measured at 24 hrs post dose; type: ADME, organism-based, SK-OV-3
[5] = Drug concentration in tumor of NSG mouse xenografted with human SKOV3 cells at 3 mg/kg, po QD measured at 24 hrs post dose; type: ADME, organism-based, Neoplasm, SK-OV-3; conditions: read-out: Drug uptake
[6] = Apparent permeability across basolateral side to apical side in MDCK cells; type: ADME, cell-based, Canis lupus familiaris; conditions: dog
[7] = Apparent permeability across basolateral side to apical side in MDCK-MDR1 cells; type: ADME, cell-based, Canis lupus familiaris; conditions: dog
[8] = Apparent permeability across apical side to basolateral side in wild type MDCK cells; type: ADME, cell-based, Canis lupus familiaris; conditions: dog
in vitro [9] = conditions: rat, liver microsomes
[10] = Apparent permeability across apical side to basolateral side in MDCK-MDR1 cells; type: ADME, cell-based, Canis lupus familiaris; conditions: dog
in vivo [11] = conditions: CD1, mouse, iv, 0.3 mg/kg
in vivo [12] = conditions: CD1, mouse, iv, 0.3 mg/kg; remark: listed apart in the source
in vivo [13] = conditions: CD1, mouse, po, 10 mg/kg
in vivo [14] = conditions: CD1, mouse, iv, 0.3 mg/kg; remark: listed apart in the source
in vivo [15] = conditions: CD1, mouse, iv, 0.3 mg/kg; remark: listed apart in the source
in vivo [16] = conditions: CD1, mouse, po, 10 mg/kg; remark: listed apart in the source
in vivo [17] = conditions: NSG, mouse, tumor, po, 125 mg/kg; remark: listed apart in the source
in vivo [18] = conditions: NSG, mouse, plasma, po, 125 mg/kg; remark: listed apart in the source
in vivo [19] = conditions: CD-1, mouse, iv, 0.3 mg/kg
in vivo [20] = conditions: CD-1, mouse, po, 10 mg/kg
in vivo [21] = conditions: CD-1, mouse, iv, 0.3 mg/kg; remark: listed apart in the source
[22] = Drug concentration in tumor of NSG mouse xenografted with human SKOV3 cells at 125 mg/kg, po BID measured after 12 hrs by LC-MS analysis; type: ADME, organism-based, Neoplasm, SK-OV-3; conditions: read-out: Drug uptake
in vivo [23] = conditions: CD-1, mouse, iv, 0.3 mg/kg; remark: listed apart in the source
[24] = AUC in rat plasma at 250 mg/kg, po QD administered for 7 days; type: ADME, organism-based; parameters: dose 250 mg/kg, time 7 day
[25] = Drug concentration in plasma of NSG mouse xenografted with human SKOV3 cells at 125 mg/kg, po BID measured after 12 hrs by LC-MS analysis; type: ADME, organism-based, SK-OV-3
in vivo [26] = conditions: CD-1, mouse, iv, 0.3 mg/kg; remark: listed apart in the source
in vivo [27] = conditions: CD-1, mouse, po, 10 mg/kg; remark: listed apart in the source

CCC(NC(=O)c1ccc(Cl)cc1)[C@@H]1[C@@H]2C[C@@H](Oc3ccnc4ccc(F)cc34)C[C@@H]21 (some centres undefined)
CLint scaled at 0.75 h, 1 µM (in vitro [1]): 29.4 L/h/kg

CCC(NC(=O)c1ccc(Cl)cc1)[C@H]1[C@@H]2C[C@@H](n3cnc(C4CC4)n3)C[C@@H]21 (some centres undefined)
CLint scaled at 0.75 h, 1 µM (in vitro [1]): 0.12 L/h/kg

CCC(NC(=O)c1ccc(Cl)cc1)[C@H]1[C@@H]2C[C@@H](n3cnc4cccc(F)c4c3=O)C[C@@H]21 (some centres undefined)
CLint scaled at 0.75 h, 1 µM (in vitro [1]): 0.042 L/h/kg

CC[C@@H](NC(=O)c1ccc(Cl)cc1)[C@H]1[C@@H]2C[C@@H](n3cnc4ccc(C#N)cc43)C[C@@H]21
concentration at 120 h (in vivo [2]): 12 µM | concentration at 120 h (in vivo [3]): 10.1 µM

C[C@@H](NC(=O)c1ccc(Cl)cc1)[C@H]1[C@@H]2C[C@@H](n3cnc4cc(F)c(F)cc43)C[C@@H]21
concentration at 120 h (in vivo [2]): 5.1 µM | concentration at 120 h (in vivo [3]): 2.8 µM

CCC(c1nc2cc(Cl)ccc2[nH]1)[C@H]1[C@@H]2C[C@@H](c3ccnc4ccc(F)cc34)C[C@@H]21 (some centres undefined)
concentration at 24 h [4]: 1.9 µM | CLint scaled at 0.75 h, 1 µM (in vitro [1]): 1.02 L/h/kg | concentration at 24 h [5]: 0.5 µM

CCC(NC(=O)c1ccc(Cl)cc1)[C@H]1[C@@H]2C[C@H](Oc3ccnc4ccccc34)C[C@@H]21 (some centres undefined)
Papp B→A [6]: 56.1 nm/s | Papp B→A [7]: 20.7 nm/s | CLint scaled at 0.75 h, 1 µM (in vitro [1]): 19 L/h/kg | Papp A→B [8]: 55.3 nm/s | CLint scaled at 0.75 h, 1 µM (in vitro [9]): 57.4 L/h/kg | Papp A→B [10]: 37 nm/s

CCC(NC(=O)c1ccc(Cl)cc1)[C@H]1[C@@H]2C[C@@H](n3cnc4cc(F)cc(F)c43)C[C@@H]21 (some centres undefined)
CLint scaled at 0.75 h, 1 µM (in vitro [1]): 0.33 L/h/kg

O=C(NC[C@H]1[C@H]2C[C@H](Oc3ccnc4ccc(F)cc34)C[C@@H]12)c1ccc(Cl)cc1
CLint scaled at 0.75 h, 1 µM (in vitro [1]): 13.6 L/h/kg

CC(NC(=O)c1ccc(C#N)cc1)[C@H]1[C@@H]2C[C@@H](Oc3ncnc4cc(F)ccc34)C[C@@H]21 (some centres undefined)
Vd (in vivo [11]): 0.31 L/kg | CLint scaled at 0.75 h, 1 µM (in vitro [1]): 1.02 L/h/kg | half-life (in vivo [12]): 33 h | Cmax (in vivo [13]): 44 µM | AUC(0-inf) (in vivo [14]): 106 µM·h | clearance (in vivo [15]): 0.007 L/h/kg | bioavailability (in vivo [16]): 62%

CCC(NC(=O)c1ccc(Cl)cc1)[C@H]1[C@@H]2C[C@@H](n3cnc4ncc(C#N)cc43)C[C@@H]21 (some centres undefined)
CLint scaled at 0.75 h, 1 µM (in vitro [1]): 0.27 L/h/kg

CC[C@@H](NC(=O)c1ccc(C#N)cc1)[C@H]1[C@@H]2C[C@@H](n3cnc4cc(F)c(F)cc43)C[C@@H]21
concentration at 120 h (in vivo [17]): 52 µM | concentration at 120 h (in vivo [18]): 49.3 µM

CCC(NC(=O)c1ccc(Cl)cc1)[C@H]1[C@@H]2C[C@@H](NC(=O)c3cncc(F)c3)C[C@@H]21 (some centres undefined)
CLint scaled at 0.75 h, 1 µM (in vitro [1]): 0.78 L/h/kg

C[C@H](C(=O)Nc1ccc(Cl)cc1)[C@H]1CC[C@@H](c2ccnc3ccc(F)cc32)CC1
half-life at 24 h (in vivo [19]): 1.57 h | concentration at 120 h (in vivo [2]): 0.9 µM | Cmax at 24 h (in vivo [20]): 4.1 µM | AUC(0-inf) at 24 h (in vivo [21]): 0.37 µM·h | concentration at 12 h [22]: 0.61 µM | clearance at 24 h (in vivo [23]): 2 L/h/kg | AUC at 168 h [24]: 95 µM·h | CLint scaled at 0.75 h, 1 µM (in vitro [1]): 1.68 L/h/kg | concentration at 12 h [25]: 0.06 µM | concentration at 120 h (in vivo [3]): 0.02 µM | Vd at 24 h (in vivo [26]): 4.5 L/kg | bioavailability at 24 h (in vivo [27]): 39%

CCC(NC(=O)c1ccc(Cl)cc1)[C@H]1[C@@H]2C[C@@H](n3cnc4ccc(F)c(F)c43)C[C@@H]21 (some centres undefined)
CLint scaled at 0.75 h, 1 µM (in vitro [1]): 1.08 L/h/kg

O=C(Nc1ccc(Cl)cc1)N1CCC(CCc2ccnc3ccccc23)CC1
CLint scaled at 0.75 h, 1 µM (in vitro [1]): 6.9 L/h/kg | CLint scaled at 0.75 h, 1 µM (in vitro [9]): 10.2 L/h/kg

CCC(NC(=O)c1ccc(Cl)cc1)[C@H]1[C@@H]2C[C@@H](n3cnc4cc(F)cnc43)C[C@@H]21 (some centres undefined)
CLint scaled at 0.75 h, 1 µM (in vitro [1]): 0.0276 L/h/kg

CC[C@@H](NC(=O)c1ccc(Cl)cc1)[C@H]1[C@@H]2C[C@@H](n3cnc4ccc(Cl)cc43)C[C@@H]21
concentration at 120 h (in vivo [2]): 0.6 µM | concentration at 120 h (in vivo [3]): 0.5 µM

CC[C@@H](NC(=O)c1ccc(Cl)cc1)[C@H]1[C@@H]2C[C@@H](n3c(C)nc4ccc(F)cc43)C[C@@H]21
concentration at 120 h (in vivo [2]): 0.1 µM | concentration at 120 h (in vivo [3]): 0.01 µM
